Results from US6541519B2, “Methods and compositions for treating lipoxygenase-mediated disease states” (Coastside Bio Resources, priority 2000, dated 2003).
pIC50: −log10 of the molar value. Converted amounts (≈) assume the structure as drawn.

How the values were obtained:
H1299 cells = test: MTT cytotoxicity assay, H1299; format: cell-based; conditions: Homo sapiens, NCI-H1299
Experimental: (§1) The relative cytotoxic activity of 12-MTA against human tumor cells was measured by means of a MTT assay. Human cell lines, including H1299, PC3, K562, A549, DU145, and HL60 were used.

HL60 cells = test: MTT cytotoxicity assay, HL60; format: cell-based; conditions: Homo sapiens, HL-60
Experimental: as §1

A549 cells = test: MTT cytotoxicity assay, A549; format: cell-based; conditions: Homo sapiens
Experimental: as §1

PC3 cells [1] = test: MTT cytotoxicity assay, PC3; format: cell-based; conditions: Homo sapiens, PC-3
Experimental: as §1

DU145 cells = test: MTT cytotoxicity assay, DU145; format: cell-based; conditions: Homo sapiens, DU-145
Experimental: as §1

K562 cells = test: MTT cytotoxicity assay, K562; format: cell-based; conditions: Homo sapiens
Experimental: as §1

[2] = test system: PC3 human prostate cancer cells; test: Morphological changes by scanning electron microscopy; format: cell-based; conditions: 24.2 μg/ml in 0.1% DMSO, harvested 30', 1, 2, 4, 24 hours
Experimental: PC3 cells (5×10^5) were plated in 35 mm dishes. After 24 hours, cells were treated with 24.2 μg/ml of 12-MTA in 0.1% DMSO. The cells were harvested at 30′, 1, 2, 4 and 24 hours. Harvested cells were fixed with 2% paraformaldehyde plus 3% glutformaldehyde in 0.1% sodium cacodylate buffer, pH 7.3. Morphological changes were measured by scanning electron microscopy (SEM).

PC3 cells [3] = test: DNA fragmentation analysis (propidium iodide staining and FACS); format: cell-based, human; conditions: 18.15 μg/ml
Experimental: To measure apoptosis directly, PC3 cells were treated with various concentrations of 12-MTA. Cell death by apoptosis was quantified by propidium iodide staining and FACS analysis. This technique measures cells with fragmented DNA, which appear as a population with hypodiploid DNA content (FIG. 2). 12-MTA induced concentration-dependent DNA fragmentation in PC3 cells.

caspase 3 in PC3 cells = test: Caspase 3 activation and PARP cleavage; format: cell-based, human; conditions: 24.2 μg/ml, 24 and 48 hours
Experimental: Caspases are a family of aspartate-specific cysteine proteases that are required for apoptosis. The most familiar substrate of caspase is PARP, which is involved with regulation of chromatin structure during differentiation and DNA repair. The native PARP protein (Mr, 116,000) is cleaved by caspase 3 or caspase 7 to yield lower molecular weight fragments. To confirm that the induction of apoptosis by 12-MTA involves activation of caspases, we treated PC3 cells with 24.2 μg/ml of 12-MTA and measured PARP cleavage and caspase 3 activation at 24 and 48 hours.

5-lipoxygenase [4] = target: T1, 5-lipoxygenase (Rattus norvegicus, UniProt P12527); test: Inhibition of 5-lipoxygenase activity (5-HETE and LTB4 production, LC/MS/MS); format: cell-based; conditions: RBL-1 cells, 5 minutes at 37° C., then A23187 and arachidonic acid
T1 construct: endogenous in cells; host or cells: RBL-1 (rat leukemia) cells
T1 sequence (P12527 1-673): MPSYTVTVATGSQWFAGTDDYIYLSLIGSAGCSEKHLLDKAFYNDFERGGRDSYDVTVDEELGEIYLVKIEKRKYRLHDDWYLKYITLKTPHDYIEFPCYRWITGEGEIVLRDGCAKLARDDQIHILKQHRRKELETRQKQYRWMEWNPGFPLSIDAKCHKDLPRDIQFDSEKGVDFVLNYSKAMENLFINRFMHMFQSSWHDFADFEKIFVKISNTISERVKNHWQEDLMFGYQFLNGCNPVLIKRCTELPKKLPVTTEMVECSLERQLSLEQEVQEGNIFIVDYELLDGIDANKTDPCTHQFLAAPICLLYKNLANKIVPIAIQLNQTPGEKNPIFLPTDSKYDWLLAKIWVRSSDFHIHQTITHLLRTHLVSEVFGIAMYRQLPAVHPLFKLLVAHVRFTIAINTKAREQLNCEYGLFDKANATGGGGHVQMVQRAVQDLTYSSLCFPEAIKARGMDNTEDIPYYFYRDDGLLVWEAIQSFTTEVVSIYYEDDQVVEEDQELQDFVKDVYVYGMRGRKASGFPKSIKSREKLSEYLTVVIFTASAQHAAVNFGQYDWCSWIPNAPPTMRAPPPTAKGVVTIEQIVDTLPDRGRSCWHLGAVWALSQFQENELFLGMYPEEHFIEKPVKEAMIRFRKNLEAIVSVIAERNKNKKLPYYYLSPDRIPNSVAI
Experimental: (§2) 12-MTA in rat leukemia (RBL-1) cells were examined. Cells were treated with 12-MTA (5 to 100 μg/ml) for 5 minutes at 37° C. followed by addition of A23187 (1 mM) and arachidonic acid (125 μM). Then the eicosanoids were extracted with hexane:ethyl acetate and analyzed by Multiple Reaction Monitoring in a tandem mass spectrometer (LC/MS/MS). Among seven eicosanoid metabolites, including PGE2, LTB4, 5-, 8-, 11-, 12-, and 15-HETEs, reduced production of 5-HETE and LTB4 in 12-MTA treated cells was observed. […] The inhibitory activity of 12-MTA on production of 5-HETE and LTB4 was concentration-dependent. This study further confirmed that 12-MTA is a 5-lipoxygenase inhibitor. 12-MTA, at 100 μg/mL, inhibited production of 12-HETE by 25% […].

12-lipoxygenase = test: Inhibition of 12-HETE production in RBL-1 cells (LC/MS/MS); format: cell-based, rat; conditions: 100 μg/mL
Experimental: as §2

PPAR-γ [5] = test: PPAR-γ expression by immunoblot, DU145; format: cell-based, human; conditions: DU145 cells, 24.2 μg/ml, serum-free media, 24 hours; preliminary data
Experimental: (§3) Peroxisome proliferator-activated receptors (PPAR) represent a family of steroid hormone receptors in a superfamily mainly involved with lipid metabolism. Recently, high levels of PPAR-γ were reportedly expressed in prostate cancer tumor and activation of PPAR-γ was associated with nonapoptotic cell death induced by some PPAR-γ ligands. […] We have examined the effects of 12-MTA on activation of PPAR-γ in DU145 and PC3 cells. Cells were treated with 24.2 μg/ml of 12-MTA in serum-free media. After 24 hours, cells were harvested and expression of PPAR-γ was detected by immunoblot with or without blocking peptide.

PPAR-γ [6] = test: PPAR-γ expression by immunoblot, PC3; format: cell-based, human; conditions: PC3 cells, 24.2 μg/ml, serum-free media, 24 hours; preliminary data
Experimental: as §3

5-lipoxygenase [7] = target: T2, 5-lipoxygenase (Homo sapiens, UniProt P09917); test: Activity based fractionation, 5-HETE inhibition (UV 235 nm); format: biochemical; conditions: preparative TLC spot at 1:100 dilution
T2 sequence (P09917 1-674): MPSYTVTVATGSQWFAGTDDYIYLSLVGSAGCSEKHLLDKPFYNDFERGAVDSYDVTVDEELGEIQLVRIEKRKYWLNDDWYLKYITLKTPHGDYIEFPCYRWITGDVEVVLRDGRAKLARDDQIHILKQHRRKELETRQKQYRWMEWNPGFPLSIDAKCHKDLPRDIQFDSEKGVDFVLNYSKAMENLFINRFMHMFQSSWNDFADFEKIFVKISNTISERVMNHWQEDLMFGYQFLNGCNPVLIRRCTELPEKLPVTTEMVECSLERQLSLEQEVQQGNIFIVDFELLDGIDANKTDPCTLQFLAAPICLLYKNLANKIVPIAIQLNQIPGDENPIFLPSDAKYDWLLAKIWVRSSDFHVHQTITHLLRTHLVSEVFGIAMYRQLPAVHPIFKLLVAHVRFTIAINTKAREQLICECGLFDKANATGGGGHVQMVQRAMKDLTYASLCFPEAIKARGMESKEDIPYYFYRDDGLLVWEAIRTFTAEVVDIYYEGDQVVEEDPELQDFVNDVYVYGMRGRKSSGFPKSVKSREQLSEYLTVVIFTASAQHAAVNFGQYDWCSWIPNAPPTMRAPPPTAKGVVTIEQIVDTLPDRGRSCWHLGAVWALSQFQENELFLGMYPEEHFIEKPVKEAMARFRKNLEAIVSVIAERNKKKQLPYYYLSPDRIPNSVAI
Source text: The method of isolation was by ‘activity based fractionation’ using 5- and 12-lipoxygenase inhibition as the guiding assay. Using chromatography, preparative HPLC and preparative TLC of the sea cucumber oil, and checking 5-HETE with detection with UV at 235 nm, one particular spot on the TLC inhibited 5-HETE by approximately 94% at a 1:100 dilution. (FIGS. 3 and 4) The effect of 12-MTA on 5-HETE inhibition was also concentration dependent. The identity of the particular inhibitory ‘spot’ from preparative TLC was later identified by GC/MS, MS and NMR analysis and was confirmed to be 12-methyltetradecanoic acid (12-MTA).

CCC(C)CCCCCCCCCCC(=O)O (stereo not drawn) [12-MTA, 12-methyltetradecanoic acid]
IC50 (H1299 cells): 18.1 µg/mL (≈ 74.9 µM) | IC50 (HL60 cells): 20.6 µg/mL (≈ 84.9 µM) | IC50 (A549 cells): 21.8 µg/mL (≈ 89.9 µM) | IC50 (PC3 cells [1]): 30.1 µg/mL (≈ 124 µM) | IC50 (DU145 cells): 30.2 µg/mL (≈ 125 µM) | IC50 (K562 cells): 33.1 µg/mL (≈ 137 µM) | Morphological (apoptotic) changes by SEM [2]: cells exhibited apoptotic changes after 1-hour of exposure | percent of apoptotic cells (fragmented DNA) (PC3 cells [3]): 75% | PARP cleavage (caspase 3 in PC3 cells): prominent PARP cleavage | caspase 3 activation (caspase 3 in PC3 cells): can activate caspase 3 | pIC50 (5-lipoxygenase [4]): ~3.99 | inhibition of production of 12-HETE (12-lipoxygenase): 25% | expression of PPAR-γ (PPAR-γ [5]): only slightly increased | expression of PPAR-γ (PPAR-γ [6]): only slightly increased | inhibition of 5-HETE (5-lipoxygenase [7]): approximately 94%
